In US20220002373A1, “SINGLE-CHAIN INSULIN ANALOGUES WITH POLY-ALANINE C-DOMAIN SUB-SEGMENTS” (CASE WESTERN RESERVE UNIVERSITY, priority 2018, published 2022):

Tested on: Sprague-Dawley rats made diabetic with streptozotocin
Test: Pharmacodynamics after subcutaneous injection in a rat model of diabetes mellitus (blood-glucose concentration over time)
Type: in vivo
Conditions: dose equivalent in nanomoles to 15 μg insulin lispro per 300-gram rat, relative to insulin lispro, FIG. 6
Method: The dose was 15 μg of insulin lispro per 300-gram rat; doses of the SCIs were equivalent in units of nanomoles per 300-gram rat (i.e., micrograms corrected for respective molecular masses).

SCI-4: 57-residue single-chain insulin analogue, C domain EAAAAA, substitutions His^A8, Glu^A14, Asp^B28, Pro^B29; expressed in Pichia pastoris (FVNQHLCGSHLVEALYLVCGERGFFYTDPTEAAAAAGIVEQCCHSICSLEQLENYCN)
integrated potency (area over the curve): essentially identical to that of insulin lispro | offset of action / duration of action (tail of insulin action): essentially identical to that of insulin lispro | onset of action: essentially identical to that of insulin lispro
